Where a name gives a salt, the structure may show the parent alone. Marks after values point to notes of the source that are not given here.
Columns and labels:
[1] = system: mice cough induced by ammonia water; experiment: Antitussive test, cough induced by ammonia water in mice; format: in vivo, ICR mice
Description: • Animals: male ICR mice; • Drugs and reagents: dextromethorphan hydrobromide, ammonia water, 0.2% CMC-Na, protein BD-6; • Apparatus: Compressed nebulizer (403T type), balance (XS105DU type). • Experiment grouping: • Solvent control group; • Dextromethorphan 15 mg/kg group; • Protein BD-6, 20 mg/kg group, 50 mg/kg group.
Dextromethorphan and different doses of protein BD-6 (administration volume 10 ml/kg) were given orally in groups, and the solvent control group was given the same volume of distilled water. One hour later, mice were put into a sealed box and atomized 10% ammonia water for 10 seconds, and then observed and recorded the incubation period of cough in mice and the number of coughs in 2 minutes.
Record the time point of oral administration, the time point of atomization experiment, the incubation period of mice cough and the number of coughs within 2 minutes, respectively. The incubation period of cough refers to the number of seconds from the start of the atomization of ammonia to the occurrence of cough. The performance of coughing in mice is based on contraction of their abdominal muscles (breast contraction) and opening their mouths at the same time. Calculate the mean and standard error of each group of data, and use TTEST to compare the model group with other groups, and P<0.05 is considered as a significant difference.

[2] = system: PLO-induced epilepsy in mice; experiment: Pilocarpine (PLO) induced convulsive epilepsy in mice; format: in vivo, ICR mice; set-up: mortality rate: unit not given here; conditions: Diazepam 2 mg/kg, PLO 225 mg/kg i.p.
Description: • Animals: male ICR mice; • Drugs: Pilocarpine HCl (PLO, pilocarpine, pilocarpine hydrochloride), Diazepam (diazepam tablets), protein BD-6. • Experiment grouping: • Model group: • Diazepam 2 mg/kg group; • Protein BD-6, 50 mg/kg group, 200 mg/kg group.
The drug was administered once in the afternoon the day before modeling, PLO-225 mg/kg (modeling agent) was injected intraperitoneally 1 hour after the test drug was administered intragastrically on the day of modeling. And positive drug can be administered once 20 minutes before modeling. Observe for 30 minutes after PLO injection.
Observation indicators: ①Seizure situation: the time of seizures from Grade II to Grade IV; ②the time to death.
(§1) Seizure grade: Refer to Racine grading standard: Grade 0: No response; Grade I: manifested as twitching of facial muscles or the corners of the mouth; Grade II: can nod; Grade III: twitching of one limb; Grade IV: rigidity or body twitching; Grade V: generalized epilepsy (generalized tonic seizures).
Count the number of Grade IV seizures and deaths in each group of mice in the experiment; Grade II, III and IV incubation period. […] Chi-square test was used for statistics of the number of cases. The mean value and standard error of the incubation period were calculated, and TTEST was used to compare the model group with other groups. P<0.05 was considered as a significant difference.

[3] = system: PTZ-induced epilepsy in mice; experiment: Pentylenetetrazole (PTZ) induced epilepsy in mice; format: in vivo, ICR mice; conditions: Retigabine 60 mg/kg, PTZ 65 mg/kg i.p.
Description: • Animals: male ICR mice; • Medicines: Pentylenetetrazol (PTZ), Retigabine, Protein BD-6. • Experiment grouping: • Model group; • Retigabine 60 mg/kg group; • Protein BD-6, 50 mg/kg group, 200 mg/kg group;
The drug was administered once in the afternoon the day before modeling, On the day of modeling, PTZ-65 mg/kg (modeling agent) was injected intraperitoneal 1 hour after the test drug was administered intragastrically, and the positive drug can be administered once half an hour before modeling. Continue to observe for 15 minutes after injection of PTZ.
Observation index: ①Seizure situation: the time of seizures from Grade III to Grade VI; ②Death situation
as §1
Count the cases of seizures and deaths in each group of mice in the experiment; Grade III and IV incubation period. The incubation period of mice that have not attacked to Grade IV is recorded as the maximum of 900 seconds. Chi-square test was used for statistics of the number of cases. Calculate the mean and standard error of the incubation period. Use TTEST to compare the model group with other groups, and P<0.05 is considered as a significant difference.

[4] = system: lipopolysaccharide (LPS) induced fever model in rats; experiment: Lipopolysaccharide (LPS) induced fever model in SD rats; format: in vivo
Description: • Animals: 230-260 grams of male SD rats; • Drugs: lipopolysaccharide (LPS, SIGMAL-2880), aspirin (SIGMAA2093), protein BD-6; • Instruments: electronic balance (SARTORIUS BP121S type), electronic clinical thermometer (CITIZEN CT-513W type). • Experiment grouping: • Normal control group; • Model group: lipopolysaccharide fever model; • Positive control group: Aspirin 300 mg/kg group; • Protein BD-6, 10 mg/kg group, 50 mg/kg group.
Method: the method of intraperitoneal injection of Lipopolysaccharide to replicate rat fever model.
(§2) Preparation of experimental animals: After the experimental animals adapt to the experimental environment (temperature 22° C.±2° C., relative humidity 50%±2%) for 1 day. Pre-adaptation to measure rectal temperature at 8:00 and 15:00, rats were fasted and water was taken freely 12 h before experiment, and let the animal to empty its feces before measuring the rectal temperature. Apply petroleum jelly to the electronic thermometer probe before each temperature measurement. Insert the rat rectum 2 cm (can be marked at 2 cm to ensure that the depth of each insertion is consistent), and record the body temperature after the reading is stable.
Intraperitoneal injection of lipopolysaccharide to replicate rat fever model: The body temperature of the rats was measured before modeling. Qualified rats with a body temperature of 36.2-37.3° C. were selected and randomly divided into groups with 8 rats in each group. After oral administration of aspirin and different doses of protein BD-6, lipopolysaccharide (20 µg/kg, 2 ml/kg) was injected intraperitoneally immediately, and the normal control group was injected intraperitoneally with an equal volume of normal saline. The body temperatures of the rats were monitored after 2 hours for a total of 8 hours.
(§3) According to the body temperature measured at each time point on the day of the experiment, calculate the mean, standard deviation and standard error of the body temperature of each group of rats. The data of each group was compared with TTEST, and P<0.05 was considered as a significant difference.

[5] = system: yeast-induced fever model in rats; experiment: Yeast-induced fever model in SD rats; format: in vivo
Description: • Medicines: yeast (OXOID LP0021), aspirin (SIGMA A2093), protein BD-6; • Instruments: electronic balance (SARTORIUS BP121S type), electronic clinical thermometer (CITIZEN CT-513W type). • Experiment grouping: • Normal control group; • Model group: yeast fever model; • Positive control group: Aspirin 300 mg/kg group; • Protein BD-6, 10 mg/kg group, 50 mg/kg group.
as §2
Subcutaneous injection of dry yeast to replicate rat fever model: The body temperature of the rats was measured before modeling. Qualified rats with a body temperature of 36.2-37.3° C. were selected and randomly divided into groups with 8 rats in each group. After oral administration of aspirin and different doses of protein BD-6, 20% yeast suspension (10 ml/kg) was injected subcutaneously immediately, and the normal control group was injected intraperitoneally with an equal volume of normal saline. The body temperatures of the rats were monitored after 2 hours for a total of 8 hours.
as §3

[6] = system: acetic acid writhing of ICR mice; experiment: Acetic acid writhing test in ICR mice; format: in vivo
Description: • Animals: male ICR mice; • Drugs and reagents: aspirin, physiological saline, glacial acetic acid, protein BD-6. • Experiment grouping: • Model group; • Aspirin 300 mg/kg group; • Protein BD-6, 50 mg/kg group, 200 mg/kg group.
One day after the experimental animals adapt to the environment, Aspirin 300 mg/kg, protein BD-6 50 mg/kg, 200 mg/kg were given orally one hour in advance, and the administration volume was 10 ml/kg; Then, 0.6% acetic acid solution was injected intraperitoneally, and the incubation period (seconds) and frequency of writhing in the animal was observed within 15 minutes.
Calculate the mean and standard error of the data in each group. Compared with the model group by TTEST, P<0.05 was considered as statistically different.

[7] = aspirin 300 mg/kg oral, LPS 20 µg/kg i.p., SD rats
[8] = aspirin 300 mg/kg oral, 20% yeast s.c., SD rats
[9] = aspirin 300 mg/kg oral, 0.6% acetic acid i.p., within 15 minutes

COc1ccc2c(c1)[C@]13CCCC[C@@H]1[C@H](C2)N(C)CC3 [Dextromethorphan, dextromethorphan hydrobromide, reference compound]
Incubation period (cough) ([1]; Dextromethorphan 15 mg/kg oral, 10% ammonia water 10 seconds, X±SEM): 37.3 ± 2.4 s | Number of coughs ([1]; Dextromethorphan 15 mg/kg oral, within 2 minutes, X±SEM): 30.2±2.0^∗∗ | Incubation period and number of coughs vs solvent control (in words) ([1]; dextromethorphan 15 mg/kg, P<0.05): significant improvement in the incubation period and the number of coughs

CN1C(=O)CN=C(c2ccccc2)c2cc(Cl)ccc21 [Diazepam, reference compound]
Cases of deaths ([2]; 10 mice): 0 | Grade IV seizure rate ([2]; 10 mice): 0** % | mortality rate ([2]; 10 mice): 0 | Cases of Grade IV ([2]; 10 mice, 30 min observation): 0** | Grade II seizure incubation period ([2]; mean±SEM): 151±6^∗∗ s | Grade III seizure incubation period ([2]; mean±SEM): 275±20^∗∗ s | Grade IV seizure incubation period ([2]; mean±SEM, maximum 1800 seconds): 1800±0^∗∗ s

CCOC(=O)Nc1ccc(NCc2ccc(F)cc2)cc1N [Retigabine, reference compound]
Cases of deaths ([3]; 10 mice): 0 | Grade IV seizure rate ([3]; 10 mice): 40%* | mortality rate ([3]; 10 mice): 0% | Cases of Grade IV ([3]; 10 mice, 15 min observation): 4* | Grade III seizure incubation period ([3]; mean±SEM): 104±13^∗∗ s | Grade IV seizure incubation period ([3]; mean±SEM, maximum 900 seconds): 634±109^∗∗ s

CC(=O)Oc1ccccc1C(=O)O [aspirin, reference compound]
Body temperature 2 hours after modeling [4, 7]: 36.7±0.1 °C | Body temperature 4 hours after modeling [4, 7]: 36.7±0.1 °C | Body temperature 6 hours after modeling [4, 7]: 36.6±0.1 °C | Body temperature 8 hours after modeling [4, 7]: 36.6±0.1 °C | Effect on increase in body temperature (in words) ([4]; aspirin 300 mg/kg, 2, 4, 6 and 8 hours after modeling, P<0.05 vs model group): can effectively inhibit the increase in body temperature of model rats | Body temperature 2 hours after modeling [5, 8]: 37.1±0.1 °C | Body temperature 4 hours after modeling [5, 8]: 37.0±0.1 °C | Body temperature 6 hours after modeling [5, 8]: 37.1±0.1 °C | Body temperature 8 hours after modeling [5, 8]: 37.1±0.1 °C | Effect on increase in body temperature (in words) ([5]; aspirin 300 mg/kg, 4, 6 and 8 hours after modeling, P<0.05 vs model group): can effectively inhibit the increase in body temperature of model rats | Writhing incubation period and times of writhing vs model group (in words) ([6]; Aspirin 300 mg/kg, P<0.05): can significantly delay the incubation period of writhing and reduce the times of writhing | Frequency of writhing [6, 9]: 14.8±3.3^∗∗ times | Writhing incubation period [6, 9]: 281.6±26.0^∗∗ seconds
